Reference: ChEMBL document CHEMBL1201862, “PubChem BioAssay data set” (2004)
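Values below derive from 48-hour exposures of cells grown in 96-well plates, with endpoints linearly interpolated between the two concentrations bracketing the appropriate inhibition level. The concentration for 50% growth inhibition is given as GI50.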 The source made the active and inactive calls. Cut-off read from the data, not from the text of the source: active = GI50 up to about 1.1 µM and inactive = higher.

Legend:
Experiment in all cases: NCI anticancer screen, dose series, 48 h
[1] = tested on: RXF 393
[2] = tested on: ACHN
[3] = tested on: MCF7
[4] = tested on: NCI/ADR-RES
[5] = tested on: T47D
[6] = tested on: KM12
[7] = tested on: U-251
[8] = tested on: HCC 2998
[9] = tested on: HCT-15
[10] = tested on: SN12C
[11] = tested on: IGROV-1
[12] = tested on: HT-29
[13] = tested on: Hs-578T
[14] = tested on: OVCAR-4
[15] = tested on: NCI-H460
[16] = tested on: M14
[17] = tested on: UACC-257
[18] = tested on: RPMI-8226
[19] = tested on: BT-549
[20] = tested on: CAKI-1
[21] = tested on: A498
[22] = tested on: EKVX
[23] = tested on: NCI-H226
[24] = tested on: SF-295
[25] = tested on: MOLT-4
[26] = tested on: 786-0
[27] = tested on: OVCAR-5
[28] = tested on: SK-MEL-5
[29] = tested on: SW-620
[30] = tested on: MDA-MB-231
[31] = tested on: SF-539
[32] = tested on: MDA-N
[33] = tested on: SF-268
[34] = tested on: OVCAR-8
[35] = tested on: A549
[36] = tested on: COLO 205
[37] = tested on: MDA-MB-435
[38] = tested on: Malme-3M
[39] = tested on: K562
[40] = tested on: HOP-92
[41] = tested on: NCI-H522
[42] = tested on: SR
[43] = tested on: DU-145
[44] = tested on: SK-OV-3
[45] = tested on: NCI-H23
[46] = tested on: HL-60
[47] = tested on: UO-31
[48] = tested on: UACC-62
[49] = tested on: SK-MEL-28
[50] = tested on: PC-3
[51] = tested on: SNB-19
[52] = tested on: CCRF-CEM
[53] = tested on: HOP-62
[54] = tested on: TK-10
[55] = tested on: HCT-116
[56] = tested on: SNB-75

CC(=O)O[C@H]1C(=O)[C@@]2(C)[C@H]([C@H](OC(=O)c3ccc([N+](=O)[O-])cc3)[C@]3(O)C[C@H](OC(=O)[C@H](O)[C@@H](NC(=O)c4ccccc4)c4ccccc4)C(C)=C1C3(C)C)[C@]1(OC(C)=O)CO[C@@H]1C[C@@H]2O
GI50 [1]: > 25 µM (inactive) | GI50 [2]: > 25 µM (inactive) | GI50 [3]: > 25 µM (inactive) | GI50 [4]: > 25 µM (inactive) | GI50 [5]: > 25 µM (inactive) | GI50 [6]: > 25 µM (inactive) | GI50 [7]: > 25 µM (inactive) | GI50 [8]: > 25 µM (inactive) | GI50 [9]: > 25 µM | GI50 [10]: > 25 µM (inactive) | GI50 [11]: > 25 µM (inactive) | GI50 [12]: > 25 µM (inactive) | GI50 [13]: > 25 µM (inactive) | GI50 [14]: > 25 µM (inactive) | GI50 [15]: > 25 µM (inactive) | GI50 [16]: > 25 µM (inactive) | GI50 [17]: > 25 µM (inactive) | GI50 [18]: > 25 µM (inactive) | GI50 [19]: > 25 µM (inactive) | GI50 [20]: > 25 µM (inactive) | GI50 [21]: > 25 µM (inactive) | GI50 [22]: > 25 µM (inactive) | GI50 [23]: > 25 µM (inactive) | GI50 [24]: > 25 µM (inactive) | GI50 [25]: > 25 µM (inactive) | GI50 [26]: > 25 µM (inactive) | GI50 [27]: > 25 µM (inactive) | GI50 [28]: > 25 µM (inactive) | GI50 [29]: > 25 µM (inactive) | GI50 [30]: > 25 µM (inactive) | GI50 [31]: > 25 µM (inactive) | GI50 [32]: 16.8 µM (inactive) | GI50 [33]: > 25 µM (inactive) | GI50 [34]: > 25 µM (inactive) | GI50 [35]: > 25 µM (inactive) | GI50 [36]: > 25 µM (inactive) | GI50 [37]: > 25 µM (inactive) | GI50 [38]: > 25 µM (inactive) | GI50 [39]: > 25 µM (inactive) | GI50 [40]: > 25 µM (inactive) | GI50 [41]: > 25 µM (inactive) | GI50 [42]: > 25 µM (inactive) | GI50 [43]: > 25 µM (inactive) | GI50 [44]: > 25 µM (inactive) | GI50 [45]: > 25 µM (inactive) | GI50 [46]: > 25 µM (inactive) | GI50 [47]: > 25 µM (inactive) | GI50 [48]: > 25 µM (inactive) | GI50 [49]: > 25 µM (inactive) | GI50 [50]: > 25 µM (inactive) | GI50 [51]: > 25 µM (inactive) | GI50 [52]: > 25 µM (inactive) | GI50 [53]: > 25 µM (inactive) | GI50 [54]: > 25 µM (inactive) | GI50 [55]: > 25 µM (inactive) | GI50 [56]: > 25 µM (inactive)
